Laboratory results published in PubChem BioAssay AID2060501 (Molecular Pharmacology Branch, DTP, NCI, 2025).

Tested on: 282377-053-R-J1-PDC complex spheroids, viability
Experiment: Anticancer human tumor 282377-053-R-J1-PDC patient-derived colon adenocarcinoma cell line growth inhibition [GQUAD]
Settings: for IC50: curve of first compound; for viability, T/C: stronger effect = lower value
Outline: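 Tumor cells were grown as complex spheroids with HUVEC endothelial cells and mesenchymal stem cells as stroma. G-quadruplex stabilizers were combined with targeted agents over half-log dilutions from near the clinical Cmax, or from 10 microM.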

[1] = second compound 0.0316 µM, first compound 0.0316 µM
[2] = second compound 0.0316 µM, first compound 0.1 µM
[3] = second compound 0.0316 µM, first compound 0.316 µM
[4] = second compound 0.0316 µM, first compound 1 µM
[5] = second compound 0.0316 µM, first compound 3.16 µM
[6] = second compound 0.0316 µM, first compound 10 µM
[7] = second compound 0.1 µM, first compound 0.0316 µM
[8] = second compound 0.1 µM, first compound 0.1 µM
[9] = second compound 0.1 µM, first compound 0.316 µM
[10] = second compound 0.1 µM, first compound 1 µM
[11] = second compound 0.1 µM, first compound 3.16 µM
[12] = second compound 0.1 µM, first compound 10 µM
[13] = second compound 0.316 µM, first compound 0.0316 µM
[14] = second compound 0.316 µM, first compound 0.1 µM
[15] = second compound 0.316 µM, first compound 0.316 µM
[16] = second compound 0.316 µM, first compound 1 µM
[17] = second compound 0.316 µM, first compound 3.16 µM
[18] = second compound 0.316 µM, first compound 10 µM
[19] = second compound 1 µM, first compound 0.0316 µM
[20] = second compound 1 µM, first compound 0.1 µM
[21] = second compound 1 µM, first compound 0.316 µM
[22] = second compound 1 µM, first compound 1 µM
[23] = second compound 1 µM, first compound 3.16 µM
[24] = second compound 1 µM, first compound 10 µM
[25] = second compound 3.16 µM, first compound 0.0316 µM
[26] = second compound 3.16 µM, first compound 0.1 µM
[27] = second compound 3.16 µM, first compound 0.316 µM
[28] = second compound 3.16 µM, first compound 1 µM
[29] = second compound 3.16 µM, first compound 3.16 µM
[30] = second compound 3.16 µM, first compound 10 µM
[31] = second compound 10 µM, first compound 0.0316 µM
[32] = second compound 10 µM, first compound 0.1 µM
[33] = second compound 10 µM, first compound 0.316 µM
[34] = second compound 10 µM, first compound 1 µM
[35] = second compound 10 µM, first compound 3.16 µM
[36] = second compound 10 µM, first compound 10 µM
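Further: spheroids exposed to compounds for 7 days before readout.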
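Wherever viability, T/C is given: percent of vehicle DMSO control viability with 100% = untreated-like growth.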

Compound: Nc1ccn(C2OC(CO)C(O)C2(F)F)c(=O)n1 (stereo unspecified) + CN(C)c1ccc(Nc2c3ccc(NC(=O)CCN4CCCC4)cc3nc3cc(NC(=O)CCN4CCCC4)ccc23)cc1
- IC50 (second compound 0.0316 µM): 290 nM
- IC50 (second compound 0.1 µM): 296 nM
- IC50 (second compound 0.316 µM): 263 nM
- IC50 (second compound 1 µM): 271 nM
- IC50 (second compound 3.16 µM): 227 nM
- IC50 (second compound 10 µM): 228 nM
- viability, T/C [1]: 112%
- viability, T/C [2]: 68.5%
- viability, T/C [3]: 49.7%
- viability, T/C [4]: 35.8%
- viability, T/C [5]: 32.5%
- viability, T/C [6]: 20.7%
- viability, T/C [7]: 114%
- viability, T/C [8]: 78.7%
- viability, T/C [9]: 42.9%
- viability, T/C [10]: 37.7%
- viability, T/C [11]: 30.8%
- viability, T/C [12]: 20.3%
- viability, T/C [13]: 115%
- viability, T/C [14]: 77.9%
- viability, T/C [15]: 40.9%
- viability, T/C [16]: 35.8%
- viability, T/C [17]: 33.7%
- viability, T/C [18]: 19.7%
- viability, T/C [19]: 95%
- viability, T/C [20]: 77.6%
- viability, T/C [21]: 42.7%
- viability, T/C [22]: 35.7%
- viability, T/C [23]: 32.7%
- viability, T/C [24]: 20.3%
- viability, T/C [25]: 87.6%
- viability, T/C [26]: 59.9%
- viability, T/C [27]: 44.5%
- viability, T/C [28]: 38.3%
- viability, T/C [29]: 38.5%
- viability, T/C [30]: 26.9%
- viability, T/C [31]: 92.1%
- viability, T/C [32]: 74%
- viability, T/C [33]: 40.2%
- viability, T/C [34]: 30.9%
- viability, T/C [35]: 36.3%
- viability, T/C [36]: 22.8%

Compound: CCCS(=O)(=O)Nc1ccc(F)c(C(=O)c2c[nH]c3ncc(-c4ccc(Cl)cc4)cc23)c1F + Cc1[nH]c2ccc(F)cc2c1-c1nc2c3cccnc3c3ncccc3c2[nH]1
- IC50 (second compound 0.0316 µM): 2210 nM
- IC50 (second compound 0.1 µM): 2130 nM
- IC50 (second compound 0.316 µM): 2150 nM
- IC50 (second compound 1 µM): 2040 nM
- IC50 (second compound 3.16 µM): 781 nM
- IC50 (second compound 10 µM): < 31.6 nM
- viability, T/C [1]: 95.9%
- viability, T/C [2]: 90.4%
- viability, T/C [3]: 95.1%
- viability, T/C [4]: 92.5%
- viability, T/C [5]: 30.9%
- viability, T/C [6]: 14.5%
- viability, T/C [7]: 130%
- viability, T/C [8]: 114%
- viability, T/C [9]: 89%
- viability, T/C [10]: 81.2%
- viability, T/C [11]: 31.7%
- viability, T/C [12]: 13.2%
- viability, T/C [13]: 96.4%
- viability, T/C [14]: 83.7%
- viability, T/C [15]: 81.8%
- viability, T/C [16]: 91.4%
- viability, T/C [17]: 30.5%
- viability, T/C [18]: 16.1%
- viability, T/C [19]: 108%
- viability, T/C [20]: 120%
- viability, T/C [21]: 74.3%
- viability, T/C [22]: 93.2%
- viability, T/C [23]: 23.9%
- viability, T/C [24]: 11.8%
- viability, T/C [25]: 89.2%
- viability, T/C [26]: 66.7%
- viability, T/C [27]: 71.9%
- viability, T/C [28]: 45.3%
- viability, T/C [29]: 9.06%
- viability, T/C [30]: 6.19%
- viability, T/C [31]: 33.6%
- viability, T/C [32]: 31.9%
- viability, T/C [33]: 23.1%
- viability, T/C [34]: 22.8%
- viability, T/C [35]: 3.93%
- viability, T/C [36]: 4.48%

Compound: CCc1c2c(nc3ccc(O)cc13)-c1cc3c(c(=O)n1C2)COC(=O)[C@]3(O)CC + CN(C)c1ccc(Nc2c3ccc(NC(=O)CCN4CCCC4)cc3nc3cc(NC(=O)CCN4CCCC4)ccc23)cc1
- IC50 (second compound 0.0316 µM): 170 nM
- IC50 (second compound 0.1 µM): 162 nM
- IC50 (second compound 0.316 µM): 148 nM
- IC50 (second compound 1 µM): 117 nM
- IC50 (second compound 3.16 µM): 211 nM
- IC50 (second compound 10 µM): 218 nM
- viability, T/C (second compound 0.0316 µM, first compound 0.000999 µM): 102%
- viability, T/C (second compound 0.0316 µM, first compound 0.00316 µM): 104%
- viability, T/C (second compound 0.0316 µM, first compound 0.00999 µM): 85.5%
- viability, T/C [1]: 69.5%
- viability, T/C (second compound 0.0316 µM, first compound 0.0999 µM): 61.8%
- viability, T/C [3]: 40%
- viability, T/C (second compound 0.1 µM, first compound 0.000999 µM): 104%
- viability, T/C (second compound 0.1 µM, first compound 0.00316 µM): 90.9%
- viability, T/C (second compound 0.1 µM, first compound 0.00999 µM): 92.1%
- viability, T/C [7]: 60.7%
- viability, T/C (second compound 0.1 µM, first compound 0.0999 µM): 61.2%
- viability, T/C [9]: 40.9%
- viability, T/C (second compound 0.316 µM, first compound 0.000999 µM): 110%
- viability, T/C (second compound 0.316 µM, first compound 0.00316 µM): 107%
- viability, T/C (second compound 0.316 µM, first compound 0.00999 µM): 71.6%
- viability, T/C [13]: 70.9%
- viability, T/C (second compound 0.316 µM, first compound 0.0999 µM): 53.8%
- viability, T/C [15]: 43%
- viability, T/C (second compound 1 µM, first compound 0.000999 µM): 95.2%
- viability, T/C (second compound 1 µM, first compound 0.00316 µM): 97.6%
- viability, T/C (second compound 1 µM, first compound 0.00999 µM): 92.4%
- viability, T/C [19]: 76.8%
- viability, T/C (second compound 1 µM, first compound 0.0999 µM): 51.2%
- viability, T/C [21]: 42.5%
- viability, T/C (second compound 3.16 µM, first compound 0.000999 µM): 103%
- viability, T/C (second compound 3.16 µM, first compound 0.00316 µM): 105%
- viability, T/C (second compound 3.16 µM, first compound 0.00999 µM): 91.6%
- viability, T/C [25]: 68.7%
- viability, T/C (second compound 3.16 µM, first compound 0.0999 µM): 63.1%
- viability, T/C [27]: 43.7%
- viability, T/C (second compound 10 µM, first compound 0.000999 µM): 108%
- viability, T/C (second compound 10 µM, first compound 0.00316 µM): 102%
- viability, T/C (second compound 10 µM, first compound 0.00999 µM): 99.5%
- viability, T/C [31]: 86.2%
- viability, T/C (second compound 10 µM, first compound 0.0999 µM): 63.1%
- viability, T/C [33]: 43.6%
